Among the data in PubChem BioAssay AID328 (DTP/NCI, 2004) are T/C values, retold here.

In this test the test system is BDF1 mice, P388 leukemia ip, median survival T/C. Nature of the test: NCI In Vivo Anticancer Drug Screen. Data for tumor model P388 Leukemia (intraperitoneal) in B6D2F1 (BDF1) mice. To be noted: endpoint: median survival time, higher = longer survival. Put shortly: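 T/C = treated-group survival ÷ vehicle-control survival; tumour transplanted into mice before dosing.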

The mark [1] stands for this setting: dose: 50.0 mg/kg/injection, schedule: Q01DX009 (ip), vehicle: saline with Tween-80.
Setting [2] is: dose: 100.0 mg/kg/injection, schedule: Q01DX009 (ip), vehicle: saline with Tween-80.
Setting [3] is: dose: 200.0 mg/kg/injection, schedule: Q01DX009 (ip), vehicle: saline with Tween-80.
Where [4] appears, read: dose: 50.0 mg/kg/injection, schedule: Q04DX003 (ip), vehicle: saline with Tween-80.
Where [5] appears, read: dose: 6.25 mg/kg/injection, schedule: Q01DX009 (ip), vehicle: saline with Tween-80.
Setting [6] is: dose: 25.0 mg/kg/injection, schedule: Q01DX009 (ip), vehicle: saline with Tween-80.

Where “and” joins values, the source holds several entries; their conditions need not be identical. Identical values can stand only once. Inconclusive results and toxic doses are left out.

`NC1CCC(CCCC2CCCC2)CC1` (stereo not drawn): the T/C (dose: 25.0 mg/kg/injection, schedule: Q01DX009 (ip), vehicle: Klucel (hydroxypropylcellulose) (HPC)) is 101 % of control and the T/C (dose: 50.0 mg/kg/injection, schedule: Q01DX009 (ip), vehicle: Klucel (hydroxypropylcellulose) (HPC)) is 110 % of control.

With `C/C=C(\C)C(=O)OC1C(=O)OC2CC3C(C)=CC(=O)C(O)C3(C)C3C4(O)OCC23C1C(C)C4O` (stereo not drawn), the T/C is 89 % of control (dose: 0.06 mg/kg/injection, schedule: Q01DX009 (ip), vehicle: saline with Tween-80); 104 % of control (dose: 0.12 mg/kg/injection, schedule: Q01DX009 (ip), vehicle: saline with Tween-80); 98 % of control (dose: 0.25 mg/kg/injection, schedule: Q01DX009 (ip), vehicle: saline with Tween-80); 107 % of control (dose: 0.5 mg/kg/injection, schedule: Q01DX009 (ip), vehicle: saline with Tween-80); 103 % of control (dose: 1.0 mg/kg/injection, schedule: Q01DX009 (ip), vehicle: saline with Tween-80); 104 % of control (dose: 2.0 mg/kg/injection, schedule: Q01DX009 (ip), vehicle: saline with Tween-80). Further, the T/C is, setting by setting: (dose: 4.0 mg/kg/injection, schedule: Q01DX009 (ip), vehicle: saline with Tween-80) 110 % of control; (dose: 8.0 mg/kg/injection, schedule: Q01DX009 (ip), vehicle: saline with Tween-80) 100 % of control.

As for `OC(c1ccccc1)(C1CCNCC1)C1CC1` (stereo not drawn), the T/C by setting is: (dose: 25.0 mg/kg/injection, schedule: Q01DX001 (ip), vehicle: saline) 107 % of control; (dose: 50.0 mg/kg/injection, schedule: Q01DX001 (ip), vehicle: saline) 107 % of control; (dose: 100.0 mg/kg/injection, schedule: Q01DX001 (ip), vehicle: saline) 118 % of control.

Turning to `CC(=O)/C=C/c1ccco1`, the T/C by setting is: (dose: 25.0 mg/kg/injection, schedule: Q01DX009 (ip), vehicle: DMSO) 91 % of control; (dose: 25.0 mg/kg/injection, schedule: Q04DX003 (ip), vehicle: DMSO) 107 % of control; (dose: 50.0 mg/kg/injection, schedule: Q01DX009 (ip), vehicle: DMSO) 91 % of control; (dose: 50.0 mg/kg/injection, schedule: Q04DX003 (ip), vehicle: DMSO) 92 % of control.

Consider `COc1ccc(C(O)(CS(C)(=O)=O)c2cccs2)cc1` (stereo not drawn), for which the T/C reads like this: under setting [1], 110 % of control; under setting [2], 110 % of control; under setting [3], 103 % of control.

Turning to `CC(=O)N(C)C`, the T/C was 104 % of control (dose: 300.0 mg/kg/injection, schedule: Q01DX010 (ip), vehicle: saline); 104 % of control (dose: 600.0 mg/kg/injection, schedule: Q01DX010 (ip), vehicle: saline); 119 % of control (dose: 1200.0 mg/kg/injection, schedule: Q01DX010 (ip), vehicle: saline); 119 % of control (dose: 2400.0 mg/kg/injection, schedule: Q01DX010 (ip), vehicle: saline); 168 % of control (dose: 3600.0 mg/kg/injection, schedule: Q01DX010 (ip), vehicle: saline).

As for `O=C1NC(=O)C2(CCCCCC2)N1`, the T/C reads like this: under setting [1], 100 % of control; under setting [4], 112 % of control; under setting [2], 112 % of control; (dose: 100.0 mg/kg/injection, schedule: Q04DX003 (ip), vehicle: saline sonified) 95 % of control; (dose: 100.0 mg/kg/injection, schedule: Q04DX003 (ip), vehicle: saline with Tween-80) 104 % of control; under setting [3], 108 % of control. Also, the T/C is, setting by setting: (dose: 200.0 mg/kg/injection, schedule: Q04DX003 (ip), vehicle: saline sonified) 95 % of control; (dose: 200.0 mg/kg/injection, schedule: Q04DX003 (ip), vehicle: saline with Tween-80) 100 % of control; (dose: 400.0 mg/kg/injection, schedule: Q04DX003 (ip), vehicle: saline sonified) 104 % of control.

As to `C1=C(c2ccccc2)CS1`, the T/C (dose: 25.0 mg/kg/injection, schedule: Q01DX001 (ip), vehicle: saline with Tween-80) was 104 % of control and the T/C (dose: 50.0 mg/kg/injection, schedule: Q01DX001 (ip), vehicle: saline with Tween-80) was 101 % of control.

Take `CCc1ccc(C(=O)N/N=C(\C)[C@]2(O)Cc3c(O)c4c(c(O)c3[C@@H](OC3CC(N)C(O)C(C)O3)C2)C(=O)c2c(OC)cccc2C4=O)cc1` (stereo partly drawn): the T/C by setting is: (dose: 1.56 mg/kg/injection, schedule: Q01DX009 (ip), vehicle: water) 117 % of control; (dose: 3.12 mg/kg/injection, schedule: Q01DX009 (ip), vehicle: water) 161 % of control; (dose: 6.25 mg/kg/injection, schedule: Q01DX009 (ip), vehicle: water) 152 % of control and 166 % of control; (dose: 12.5 mg/kg/injection, schedule: Q01DX009 (ip), vehicle: water) 95 % of control and 122 % of control.

As for `Nc1ncc(C(=O)O)c(N)n1`, the T/C is 87 % of control (dose: 0.75 mg/kg/injection, schedule: Q01DX009 (ip), vehicle: saline with Tween-80); 104 % of control (dose: 1.5 mg/kg/injection, schedule: Q01DX009 (ip), vehicle: saline with Tween-80); 91 % of control (dose: 3.0 mg/kg/injection, schedule: Q01DX009 (ip), vehicle: saline with Tween-80); 88 % of control under setting [5]; 100 % of control (dose: 12.5 mg/kg/injection, schedule: Q04DX003 (ip), vehicle: saline with Tween-80); 111 % of control under setting [6]. In addition, the T/C (dose: 25.0 mg/kg/injection, schedule: Q04DX003 (ip), vehicle: saline with Tween-80) was 100 % of control and the T/C under setting [4] was 100 % of control.

Consider `COc1cc(Br)cc(/C=C/[N+](=O)[O-])c1OC`, for which the T/C by setting is: under setting [5], 113 % of control; (dose: 12.5 mg/kg/injection, schedule: Q01DX009 (ip), vehicle: saline with Tween-80) 118 % of control; under setting [6], 109 % of control.

Turning to `C/C(CCC(=O)O)=N/O`, the T/C was 110 % of control (dose: 100.0 mg/kg/injection, schedule: Q01DX009 (ip), vehicle: saline); 104 % of control (dose: 100.0 mg/kg/injection, schedule: Q04DX003 (ip), vehicle: saline); 120 % of control (dose: 200.0 mg/kg/injection, schedule: Q01DX009 (ip), vehicle: saline); 108 % of control (dose: 200.0 mg/kg/injection, schedule: Q04DX003 (ip), vehicle: saline); 116 % of control (dose: 400.0 mg/kg/injection, schedule: Q04DX003 (ip), vehicle: saline).

Take `CC1C/C=C2\CSC(NC(=O)/C3=C\N(C/C=C/C=C/C(O)CC(O)CC(=O)N3)C2=O)C(=O)O1` (stereo not drawn): the T/C reads like this: (dose: 100.0 mg/kg/injection, schedule: Q01DX009 (ip), vehicle: Klucel (hydroxypropylcellulose) (HPC)) 91 % of control; (dose: 200.0 mg/kg/injection, schedule: Q01DX009 (ip), vehicle: Klucel (hydroxypropylcellulose) (HPC)) 100 % of control; (dose: 400.0 mg/kg/injection, schedule: Q01DX009 (ip), vehicle: Klucel (hydroxypropylcellulose) (HPC)) 91 % of control.

`COc1cc2c[n+](C)c3c4cc5c(cc4ccc3c2cc1OC)OCO5` (tested in a mixture with another compound): the T/C (dose: 1.25 mg/kg/injection, schedule: Q01DX009 (ip), vehicle: water) was 124 % of control; the T/C (dose: 10.0 mg/kg/injection, schedule: Q01DX009 (ip), vehicle: saline) was 163 % of control and 166 % of control; the T/C (dose: 10.0 mg/kg/injection, schedule: Q01DX009 (ip), vehicle: water) is 160 % of control; the T/C (dose: 20.0 mg/kg/injection, schedule: Q01DX009 (ip), vehicle: saline) is 172 % of control and 188 % of control and 203 % of control; the T/C (dose: 20.0 mg/kg/injection, schedule: Q01DX009 (ip), vehicle: water) is 150 % of control; the T/C (dose: 40.0 mg/kg/injection, schedule: Q01DX009 (ip), vehicle: saline) was 174 % of control and 215 % of control. The T/C is 110 % of control (dose: 40.0 mg/kg/injection, schedule: Q01DX009 (ip), vehicle: water); 172 % of control and 188 % of control (dose: 80.0 mg/kg/injection, schedule: Q01DX009 (ip), vehicle: saline).

For `CC(C)(N)CCC(C)(C)NCCCN`, the T/C is, setting by setting: (dose: 50.0 mg/kg/injection, schedule: Q01DX009 (ip), vehicle: water) 92 % of control; (dose: 100.0 mg/kg/injection, schedule: Q01DX009 (ip), vehicle: water) 103 % of control; (dose: 100.0 mg/kg/injection, schedule: Q04DX003 (ip), vehicle: water) 100 % of control; (dose: 200.0 mg/kg/injection, schedule: Q01DX009 (ip), vehicle: water) 106 % of control; (dose: 200.0 mg/kg/injection, schedule: Q04DX003 (ip), vehicle: water) 103 % of control; (dose: 400.0 mg/kg/injection, schedule: Q04DX003 (ip), vehicle: water) 92 % of control.
